Publication PMC8825254, “Rational design of Striga hermonthica-specific seed germination inhibitors” (Plant Physiology, 2021)

Key:
Assay type in all cases: in vivo, rice (Oryza sativa)
[1] = tested on: Rice seeds (cv Nipponbare); test: Rice germination and seedling growth in response to inhibitors; conditions: result in words
Description: Rice seeds (cv Nipponbare) were surface sterilized in 2.5% NaClO and 0.05% of Tween-20 for 10 min, and rinsed 6 times with sterilized MilliQ water. Seeds were imbibed in sterilized water at 30°C for 24 h in the dark. Next day, ∼3 mL of each inhibitor at different concentrations (3, 6, 12, 25, 50, and 100 μM) was added along with 0.5 Murashige and Skoog (MS) medium into 24-well plate, and one imbibed rice seed was placed in each well. The experiment was performed in six replications (one plant/well, n = 6) for each concentration. Nontreated rice seeds in 0.5-MS solution were included as a control. Seeds were allowed to germinate at 30°C in the dark for 48 h for monitoring seeds germination, and seeds were moved to a growth chamber with white fluorescent light (130–180 μM m^−2 s^−1) and12 h:12 h (Light/Dark (L/D)) period at 28°C. After 1 week, length of rice seedlings was measured and recorded, and pictures of seedlings were taken.

[2] = tested on: Rice WT (cv Nipponbare) seedlings; test: Rice micro tillering assay, WT, hydroponics; conditions: 10, 50 and 100 µM, 2 weeks, result in words
Description: (§1) Rice seeds of WT (cv Nipponbare) or SL-deficient mutant (d17), were surface sterilized with 2.5% NaClO and 0.05% of Tween-20 for 10 min, and rinsed 6 times with sterilized MilliQ water. About 30 seeds were placed on sterilized Magenta GA-7 plant culture box containing 0.5% MS medium with 0.4% agar and incubated at 30°C in dark. After 2 d, boxes were moved to a growth chamber and allowed to grow for another 5 d under fluorescent white light (130–180 μM m^−2 s^−1). Equally grown seedlings were transplanted in 50-mL black tubes filled with Hoagland nutrient solution (1 seedling/tube). Seedlings were treated with 10, 50, and 100 µM of each compound (KK023-N1, Triton X-100, and KK094). The compounds were applied twice a week for 2 weeks to test their effects on the growth of WT plants. SL-deficient seedlings (d17) were treated as WT but with the addition of 1 µM GR24. Number of tillers per plant, plant height, and dry biomass were measured at final harvest.

[3] = tested on: Rice d17 seedlings; test: Rice micro tillering assay, SL-deficient mutant d17 with GR24; conditions: compound with 1.0 µM GR24; result in words
Description: as §1

What does the source list for COc1ccc(CCCc2cccc3c2CCN3C(=O)n2ccnn2)cc1 [KK023-N1]?
Effect on rice seedling plant height ([1]; all treatments (3-100 µM), 1 week): no effect on plant height was observed; Effect on rice seed germination ([1]; up to 100 µM): did not detect any effect on seed germination; Phenotype of treated rice seedlings versus control ([1]; up to 100 µM): did not show any significant phenotypic difference; Effect on dry biomass of WT rice [2]: except at 100 µM concentration that led to a reduction in biomass; Effect on plant height of WT rice [2]: did not observe any significant negative impact; Effect on tillering of WT rice [2]: did not observe any significant negative impact; Effect on GR24 action on tillering of d17 rice [3]: did not block the GR24 effect on rice tillers
